Test results taken from PMC10819888, “Benzimidazole-Based Derivatives as Apoptotic Antiproliferative Agents: Design, Synthesis, Docking, and Mechanistic Studies” (Molecules, 2024).

Legend:
Experiment in all cases: NCI-60 one-dose assay
Assay type in all cases: cell-based
NCI-H460 = details: Homo sapiens, NCI-H460 (Non-Small Cell Lung Cancer), read-out: Cell Inhibition Percent
Procedure: (§1) The final compounds were submitted to the National Cancer Institute, Bethesda, USA, for screening in vitro for anti-cancer. […] compounds, 4a–j, 5, and 6, were selected according to the Development Therapeutic Program (DTP) protocol. The selected compounds were evaluated for their in vitro cytotoxic activity against a panel of sixty cancer cell lines (NCI-60 cell line panel) derived from six cell lines panel of leukemia, nine cell lines of lung cancer, six cell lines of CNS cancer, seven cell lines of colon cancer, eight cell lines of melanoma, six cell lines of ovarian cancer, eight cell lines of renal cancer, two cell lines of prostate cancer, and eight cell lines of breast cancer, representing the full nine human systems as leukemia, melanoma, and cancers of the lung, colon, brain, breast, ovary, kidney, and prostate.
(§2) The selected compounds 4a–j, 5, and 6 were tested at a single concentration of 10 µM. The screening results for the selected compounds are illustrated in Table 1.
(§3) The NCI anti-cancer screening methodology has been described in detail elsewhere (http://www.dtp.nci.nih.gov, accessed on 20 February 2021). Following the Drug Evaluation Branch protocol, National Cancer Institute, Bethesda, USA, a primary anti-cancer assay was performed on approximately 60 human tumor cell line panels derived from nine neoplastic diseases.

HOP-92 = details: Homo sapiens, HOP-92 (Non-Small Cell Lung Cancer), read-out: Cell Inhibition Percent
Procedure: as §1, §2, §3

LOX IMVI = details: Homo sapiens, LOX IMVI (Melanoma), read-out: Cell Inhibition Percent
Procedure: as §1, §2, §3

HT29 = details: Homo sapiens, HT-29, HT29 (Colon Cancer), read-out: Cell Inhibition Percent
Procedure: as §1, §2, §3

OVCAR-4 = details: Homo sapiens, OVCAR-4 (ovarian cancer), read-out: Cell Inhibition Percent
Procedure: as §1, §2, §3

MALME-3M = details: Homo sapiens, MALME-3M (Melanoma), read-out: Cell Inhibition Percent
Procedure: as §1, §2, §3

HOP-62 = details: Homo sapiens, HOP-62 (Non-Small Cell Lung Cancer), read-out: Cell Inhibition Percent
Procedure: as §1, §2, §3

HS 578T = details: Homo sapiens, HS 578T (Breast Cancer), read-out: Cell Inhibition Percent
Procedure: as §1, §2, §3

BT-549 = details: Homo sapiens, BT-549 (Breast Cancer), read-out: Cell Inhibition Percent
Procedure: as §1, §2, §3

SR = details: Homo sapiens, SR (Leukemia), read-out: Cell Inhibition Percent
Procedure: as §1, §2, §3

UO-31 = details: Homo sapiens, UO-31 (Renal Cancer), read-out: Cell Inhibition Percent
Procedure: as §1, §2, §3

UACC-62 = details: Homo sapiens, UACC-62 (Melanoma), read-out: Cell Inhibition Percent
Procedure: as §1, §2, §3

A549/ATCC = details: Homo sapiens, A549/ATCC (Non-Small Cell Lung Cancer), read-out: Cell Inhibition Percent
Procedure: as §1, §2, §3

NCI-H226 = details: Homo sapiens, NCI-H226 (Non-Small Cell Lung Cancer), read-out: Cell Inhibition Percent
Procedure: as §1, §2, §3

RPMI-8226 = details: Homo sapiens, RPMI-8226 (Leukemia), read-out: Cell Inhibition Percent
Procedure: as §1, §2, §3

SK-MEL-5 = details: Homo sapiens, SK-MEL-5 (Melanoma), read-out: Cell Inhibition Percent
Procedure: as §1, §2, §3

T-47D = details: Homo sapiens, T47D, T-47D (Breast Cancer), read-out: Cell Inhibition Percent
Procedure: as §1, §2, §3

NCI-H23 = details: Homo sapiens, NCI-H23 (Non-Small Cell Lung Cancer), read-out: Cell Inhibition Percent
Procedure: as §1, §2, §3

MDA-MB-435 = details: Homo sapiens, MDA-MB-435 (Melanoma), read-out: Cell Inhibition Percent
Procedure: as §1, §2, §3

M14 = details: Homo sapiens, M14 (Melanoma), read-out: Cell Inhibition Percent
Procedure: as §1, §2, §3

HCT-15 = details: Homo sapiens, HCT-15 (Colon Cancer), read-out: Cell Inhibition Percent
Procedure: as §1, §2, §3

OVCAR-5 = details: Homo sapiens, OVCAR-5 (ovarian cancer), read-out: Cell Inhibition Percent
Procedure: as §1, §2, §3

SF-268 = details: Homo sapiens, SF-268 (CNS cancer), read-out: Cell Inhibition Percent
Procedure: as §1, §2, §3

HCC-2998 = details: Homo sapiens, HCC-2998 (Colon Cancer), read-out: Cell Inhibition Percent
Procedure: as §1, §2, §3

MDA-MB-468 = details: Homo sapiens, MDA-MB-468 (Breast Cancer), read-out: Cell Inhibition Percent
Procedure: as §1, §2, §3

SK-MEL-2 = details: Homo sapiens, SK-MEL-2 (Melanoma), read-out: Cell Inhibition Percent
Procedure: as §1, §2, §3

UACC-257 = details: Homo sapiens, UACC-257 (Melanoma), read-out: Cell Inhibition Percent
Procedure: as §1, §2, §3

SNB-75 = details: Homo sapiens, SNB-75 (CNS cancer), read-out: Cell Inhibition Percent
Procedure: as §1, §2, §3

HL-60(TB) = details: Homo sapiens, HL-60(TB) (Leukemia), read-out: Cell Inhibition Percent
Procedure: as §1, §2, §3

A498 = details: Homo sapiens, A498 (Renal Cancer), read-out: Cell Inhibition Percent
Procedure: as §1, §2, §3

NCI-H322M = details: Homo sapiens, NCI-H322M (Non-Small Cell Lung Cancer), read-out: Cell Inhibition Percent
Procedure: as §1, §2, §3

SMILES	inhibition at 10 µM (NCI-H460) [%]	inhibition at 10 µM (HOP-92) [%]	inhibition at 10 µM (LOX IMVI) [%]	inhibition at 10 µM (HT29) [%]	inhibition at 10 µM (OVCAR-4) [%]	inhibition at 10 µM (MALME-3M) [%]	inhibition at 10 µM (HOP-62) [%]	inhibition at 10 µM (HS 578T) [%]	inhibition at 10 µM (BT-549) [%]	inhibition at 10 µM (SR) [%]	inhibition at 10 µM (UO-31) [%]	inhibition at 10 µM (UACC-62) [%]	inhibition at 10 µM (A549/ATCC) [%]	inhibition at 10 µM (NCI-H226) [%]	inhibition at 10 µM (RPMI-8226) [%]	inhibition at 10 µM (SK-MEL-5) [%]	inhibition at 10 µM (T-47D) [%]	inhibition at 10 µM (NCI-H23) [%]	inhibition at 10 µM (MDA-MB-435) [%]	inhibition at 10 µM (M14) [%]	other results
CCn1c(-c2ccc3[nH]c(-c4ccc(Cl)cc4)nc3c2)n[nH]c1=S [Compound 6, 4-ethyl-5-(2-(4-chlorophenyl)-1H-benzimidazol-5-yl)-2,4-dihydro-3H-1,2,4triazole-3-thione]	0	0.32	0	2.07	0.6	2.41	1.71	1.05	7.91	17.5	16.8	1.04	0	1.97	0.68	2.04	0.3	4.53	0	0	inhibition at 10 µM (HCT-15): 1.62%; inhibition at 10 µM (OVCAR-5): 0%; inhibition at 10 µM (SF-268): 1.04%; inhibition at 10 µM (HCC-2998): 0%; inhibition at 10 µM (MDA-MB-468): 0%; inhibition at 10 µM (SK-MEL-2): 0%; inhibition at 10 µM (UACC-257): 0%; inhibition at 10 µM (SNB-75): 3.91%; inhibition at 10 µM (HL-60(TB)): 0%; inhibition at 10 µM (A498): 56.9%; inhibition at 10 µM (NCI-H322M): 0%
O=C(NN=Cc1ccccc1)c1ccc2[nH]c(-c3ccc(Cl)cc3)nc2c1 [Compound 4a, N′-Benzylidene-2-(4-chlorophenyl)-1H-benzimidazole-5-carbohydrazide]	0	0	7.23	3.67	0	1.28	0	7.92	4.12	18.1	8.73	0	0	5.74	13.8	4.85	18.2	1.85	0	8.89	inhibition at 10 µM (HCT-15): 4.81%; inhibition at 10 µM (OVCAR-5): 0%; inhibition at 10 µM (SF-268): 0%; inhibition at 10 µM (HCC-2998): 0%; inhibition at 10 µM (MDA-MB-468): 0%; inhibition at 10 µM (SK-MEL-2): 0%; inhibition at 10 µM (UACC-257): 0%; inhibition at 10 µM (SNB-75): 10.7%; inhibition at 10 µM (HL-60(TB)): 0%; inhibition at 10 µM (A498): 22.1%; inhibition at 10 µM (NCI-H322M): 0%
CN(C)c1ccc(C=NNC(=O)c2ccc3[nH]c(-c4ccc(Cl)cc4)nc3c2)cc1 [Compound 4b, N′-(4-(Dimethylamino)benzylidene)-2-(4-chlorophenyl)-1H-benzimidazole-5-carbohydrazide]	2.77	0	3.7	2.26	0	12.9	2.51	6.32	0	2.54	13.3	1.06	0	4.67	5.27	5.02	14.1	1.51	0	3.58	inhibition at 10 µM (HCT-15): 0%; inhibition at 10 µM (OVCAR-5): 0%; inhibition at 10 µM (SF-268): 0.73%; inhibition at 10 µM (HCC-2998): 6.31%; inhibition at 10 µM (MDA-MB-468): 0%; inhibition at 10 µM (SK-MEL-2): 0%; inhibition at 10 µM (UACC-257): 0%; inhibition at 10 µM (SNB-75): 0.61%; inhibition at 10 µM (HL-60(TB)): 0%; inhibition at 10 µM (A498): 12.9%; inhibition at 10 µM (NCI-H322M): 0.24%
